The source of these data is paper PMC10180349 (Molecules, 2023).

In data set [1] the test system is MDA-MB-231 cells. Briefly: Annexin V-FITC/PI flow cytometry apoptosis assay. The format is cell-based, Human. As to conditions: 0.1 nM, 48 h, control 2.17% ± 0.76%. The procedure: Cell apoptosis analysis was performed according to the manufacturer’s protocol of the Annexin V-FITC Detection kit (Beyotime, Shanghai, China). […] Finally, the samples were tested by flow cytometer (BD FACSCelesta) and analyzed using FlowJo Software (Tree Star Inc., Ashland, OR, USA). The PTX-treated group was used as a positive control.
In general terms: Flow cytometry measures light scatter and fluorescence of single cells or particles in a stream.

Data set [2] relates to MDA-MB-231 cells. Briefly: Transmission electron microscopy of treated cells. As to conditions: MDA-MB-231, 0.1 nM, 48 h. In kind it is cell-based, Human. The protocol: Ultrathin sections were isolated, stained with uranyl acetate and lead citrate for 10 min, and finally observed through the Hitachi H-7650 transmission electron microscope (Tokyo, Japan). The PTX-treated group was used as a positive control.

For data set [3], the system named is microtubules in MDA-MB-231 cells. Briefly: Immunofluorescence staining of microtubules (α-tubulin antibody). The format is cell-based, Human. As to conditions: MDA-MB-231, 0.1 nM, 48 h. The protocol: Cells were fixed with 4% paraformaldehyde for 20 min, permeabilized with 0.1%Triton X-100 for 5 min, and blocked with 1% BSA for 1.5 h. Next, cells were incubated with α-tubulin antibody (1:400 Abcam, AB52866) at 4 °C overnight, followed by the Alexa Fluor 488 conjugated goat anti-rabbit IgG secondary antibody (1:300, ZF-0511, Zhongshan Goldenbridge Biotechnology, Beijing, China). Finally, nuclei were stained with DAPI for 4 min. Stained cells were observed using a laser confocal microscope (LSM700; Zeiss, Gottingen, Germany). The PTX-treated group was used as a positive control.

Data set [4] relates to MDA-MB-231 cells. Put plainly: Cell cycle analysis (PI, flow cytometry). The format is cell-based, Human. As to conditions: 0.1 nM, 48 h, control 8.74 ± 0.60%. The procedure: Cell cycle assay was performed using the DNA Content Quantitation Assay (Solarbio, Beijing, China). […] Then, the fixed cells were incubated with RNase A solution at 37 °C for 30 min and stained with PI in the dark for 30 min at 4 °C. The red fluorescence was detected using a flow cytometer (BD FACSCalibur) at 488 nm and analyzed by FlowJo Software (Tree Star Inc, Ashland, OR, USA). The PTX-treated group was set as a positive control.

Data set [5] relates to MDA-MB-231 xenograft tumor tissue. Put plainly: TUNEL assay of tumor slides. The format is in vivo, Female BALB/c nude mice. As to conditions: PTX-TTHA 6.87-13.73 mg/kg q3d; PTX 10 mg/kg q7d. The procedure:
The tumor slides of MDA-MB-231 xenograft mice were deparaffinized and rehydrated as per the method described above. Then, the TUNEL assay was performed according to the manufacturer’s instructions. Briefly, slides were permeabilized with proteinase K for 20 min and blocked with 3% H2O2 for 10 min. After washing, slides were incubated with Biotin labeling solution for 1 h, and the nucleus was counterstained with DAPI for 1 min. The localized red fluorescence of the apoptotic cells was visualized by fluorescence microscopy. Two experienced pathologists randomly selected 10 (×200) fields for every slide and then analyzed them. The percentage of TUNEL-positive cells among total cells was semi-quantitatively measured with the Image-J software.

For data set [6] the following is noted: cited from earlier work.
Data set [7] deals with MDA-MB-231. Put plainly: cells. As to conditions: Homo sapiens, MDA-MB-231, 48 h.
The subject of data set [8] is MCF-7. Put plainly: cells. As to conditions: Homo sapiens, MCF7, 48 h.
In data set [9] the test system is 4T1. Put plainly: cells. As to conditions: Mus musculus, 4T1, 48 h.
A short description of data set [10]: physchem. As to conditions: water.
Data set [11] in a line: Solubility experiment in water. As to conditions: diluted to 5 mg/mL by water.
The nature of data set [12]: Acute-toxicity experiment, single dose via tail vein. As to conditions: 20 mg/kg CrEL paclitaxel, Taxol (PTX), day 3, p < 0.001.

SMILES strings stand for the structures. Bounds are passed on as bounds.

In general, IC50 refers to the concentration that gives 50% inhibition. By solubility is commonly meant how much of the substance goes into solution per volume.

For `CC(=O)O[C@H]1C(=O)[C@@]2(C)[C@H]([C@H](OC(=O)c3ccccc3)[C@]3(O)C[C@H](OC(=O)[C@H](O)[C@@H](NC(=O)c4ccccc4)c4ccccc4)C(C)=C1C3(C)C)[C@]1(OC(C)=O)CO[C@@H]1C[C@@H]2O` [PTX, Paclitaxel, reference compound], the cell apoptosis rate in [1] was 29.57% ± 3.31. For the same compound, the “morphological changes of apoptosis (TEM)” value in [2] is “remarkable cellular apoptosis-related characteristics were observed”. The “microtubule fluorescence intensity compared with the control group” value in data set [3] is “enhanced fluorescence intensity of microtubules”. Besides, the “cells in G2/M phase” value in data set [4] amounted to 24.22 ± 0.70%. Also, the “TUNEL signal of apoptotic cells in tumor tissue” value in data set [5] is recorded as “strong red fluorescent signal”. Also, in data set [6], the solubility in water was 0.3 to 0.5 µg/mL. Besides, the IC50 was 8.68 ± 0.75 nM in [7], 9.99 ± 0.94 nM in [8] and 9.45 ± 1.34 nM in data set [9]. This compound returned a solubility in [10] of under 0.7 µg/mL. Also, the “appearance of sample in water (solubility by photograph)” value in data set [11] is recorded as “almost insoluble in water”. Moreover, the “ALT, AST, Scr, WBC and NEUT values compared with controls” value in data set [12] was “significantly altered”.
